Here are results for 45 compounds from patent US9416129B2, “Tricyclic substituted thiadiazine dioxide compounds as BACE inhibitors, compositions and their use” (Merck Sharp & Dohme Corp., priority 2012, dated 2016).

One test has as its target human autoBACE-2 (Homo sapiens (Human), UniProt Q9Y5Z0). Put plainly: BACE-2 assay (BACE-HTRF, time-resolved endpoint proteolysis). It is filed as biochemical. The following applies: Ki calculated from IC50 using the Cheng-Prusoff equation; read-out: BACE2 Ki. The procedure: Inhibitor IC50s at purified human autoBACE-2 are determined in a time-resolved endpoint proteolysis assay that measures hydrolysis of the QSY7-[…]-Eu-amide FRET peptide substrate (BACE-HTRF assay). […] DMSO is present at 5% final concentration in the assay. Following laser excitation of sample wells at 320 nm, the fluorescence signal at 620 nm is collected for 400 ms following a 50 μs delay on a RUBYstar HTRF plate reader (BMG Labtechnologies). Raw RFU data is normalized to maximum (1.0 nM BACE/DMSO) and minimum (no enzyme/DMSO) RFU values. […] The Ki values are calculated from the IC50 using the Cheng-Prusoff equation.

Test [1] addresses soluble human BACE1 catalytic domain (Homo sapiens (Human), UniProt P56817). Put plainly: BACE1 HTRF FRET assay. The following applies: Ki calculated from IC50 using the Cheng-Prusoff equation. The class given is biochemical. The source says: Na^+-Acetate pH 5.0; 1% Brij-35; Glycerol; Dimethyl Sulfoxide (DMSO); Recombinant human soluble BACE1 catalytic domain (>95% pure); APP Swedish mutant peptide substrate (QSY7-APP^swe-Eu): QSY7-[…]-Europium-amide.
A homogeneous time-resolved FRET assay can be used to determine IC50 values for inhibitors of the soluble human BACE1 catalytic domain. This assay monitors the increase of 620 nm fluorescence that resulted from BACE1 cleavage of an APPswedish APP^swe mutant peptide FRET substrate (QSY7-[…]-Europium-amide). This substrate contains an N-terminal QSY7 moiety that serves as a quencher of the C-terminal Europium fluorophore (620 nm Em). In the absence of enzyme activity, 620 nm fluorescence is low in the assay and increased linearly over 3 hours in the presence of uninhibited BACE1 enzyme Inhibition of BACE1 cleavage of the QSY7-APP^swe-Eu substrate by inhibitors is manifested as a suppression of 620 nm fluorescence.
Varying concentrations of inhibitors at 3× the final desired concentration in a volume of 10 ul are preincubated with purified human BACE1 catalytic domain (3 nM in 10 μl) for 30 minutes at 30° C. in reaction buffer containing 20 mM Na-Acetate pH 5.0, 10% glycerol, 0.1% Brij-35 and 7.5% DSMO. Reactions are initiated by addition of 10 μl of 600 nM QSY7-APP^swe-Eu substrate (200 nM final) to give a final reaction volume of […] in a 384 well Nunc HTRF plate. The reactions are incubated at 30° C. for 1.5 hours. The 620 nm fluorescence is then read on a Rubystar HTRF plate reader (BMG Labtechnologies) using a 50 millisecond delay followed by a 400 millisecond acquisition time window. Inhibitor IC50 values are derived from non-linear regression analysis of concentration response curves.

Each structure is given as a SMILES string.

Sequence of human autoBACE-2 (Q9Y5Z0 63-473 limits assumed): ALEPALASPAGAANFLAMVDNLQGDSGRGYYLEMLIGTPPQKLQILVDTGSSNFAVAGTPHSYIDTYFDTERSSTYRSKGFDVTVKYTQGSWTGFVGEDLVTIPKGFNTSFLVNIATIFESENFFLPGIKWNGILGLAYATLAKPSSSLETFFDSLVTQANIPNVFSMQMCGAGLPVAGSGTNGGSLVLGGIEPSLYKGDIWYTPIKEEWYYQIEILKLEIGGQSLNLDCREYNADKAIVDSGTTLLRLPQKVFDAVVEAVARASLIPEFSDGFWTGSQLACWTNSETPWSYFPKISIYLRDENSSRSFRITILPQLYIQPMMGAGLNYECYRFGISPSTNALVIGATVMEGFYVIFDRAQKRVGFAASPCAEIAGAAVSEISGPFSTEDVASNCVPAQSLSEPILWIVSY
Sequence of soluble human BACE1 catalytic domain (P56817 75-416): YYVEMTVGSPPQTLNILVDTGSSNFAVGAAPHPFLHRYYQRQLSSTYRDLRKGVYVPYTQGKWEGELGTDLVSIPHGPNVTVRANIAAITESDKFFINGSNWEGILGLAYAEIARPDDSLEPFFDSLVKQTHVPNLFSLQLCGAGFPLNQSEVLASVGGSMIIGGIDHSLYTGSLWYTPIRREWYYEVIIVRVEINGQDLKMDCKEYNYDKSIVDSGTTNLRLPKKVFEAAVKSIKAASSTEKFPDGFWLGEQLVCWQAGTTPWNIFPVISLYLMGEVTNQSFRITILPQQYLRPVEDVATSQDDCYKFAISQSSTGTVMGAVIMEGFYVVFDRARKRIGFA

The term Ki denotes a dissociation constant, usually derived from enzyme kinetics or from competition with a known ligand. Take `CN1C(=N)N[C@](C)(c2sc(-c3cc(-c4nnco4)ncc3F)cc2Cl)CS1(=O)=O` [Example 58]: the Ki on human autoBACE-2 is 66 nM; in test [1] it was 68.3 nM.
The matching figures for `CCCc1cnn(-c2ccc(-c3nccc4c(Cl)c([C@]5(C)CS(=O)(=O)N(C)C(=N)N5)sc34)c(F)c2)c1` [Example 117]: 35 nM and 259 nM.
Take `CN1C(=N)N[C@](C)(c2sc(-c3cc(-c4nnco4)ccc3F)cc2Cl)CS1(=O)=O` [Example 31]: the figures for the Ki (at human autoBACE-2; in test [1]) were 4.2 nM and 1.7 nM, respectively.
The matching figures for `Cc1nnc(-c2cccc(-c3cc(F)c([C@]4(C)CS(=O)(=O)N(C)C(=N)N4)s3)c2)o1` [Example 16]: 4.2 nM and 232 nM.
The matching figures for `CN1C(=N)N[C@](C)(c2sc(-c3cc(F)cc(-c4nnco4)c3)cc2Cl)CS1(=O)=O` [Example 28]: 0.28 nM and 0.5 nM.
The matching figures for `CN1C(=N)N[C@](C)(c2sc(-c3ccc(-n4nccn4)cc3)cc2Cl)CS1(=O)=O` [Example 67]: 555 nM and 2260 nM.
Consider `CN1C(=N)N[C@](C)(c2sc3c(-c4ccc(-n5ccnn5)cc4)cccc3c2F)CS1(=O)=O` [Example 83], for which the Ki on human autoBACE-2 was 148 nM; in test [1], 19 nM.
As for `CN1C(=N)N[C@](C)(c2sc3c(-c4ccc(-n5cccn5)cc4)cccc3c2F)CS1(=O)=O` [Example 89], the Ki on human autoBACE-2 was 68 nM; in test [1], 37 nM.
With `CN1C(=N)N[C@](C)(c2sc(-c3cc(-c4nnco4)ncc3F)cc2F)CS1(=O)=O` [Example 59], the Ki was 92 nM at human autoBACE-2 and 107 nM in test [1].
The matching figures for `CN1C(=N)N[C@](C)(c2sc(-c3ccc(-c4nccs4)cc3)cc2Cl)CS1(=O)=O` [Example 70]: 174 nM and 827 nM.
The matching figures for `CN1C(=N)N[C@](C)(c2sc3c(-c4ccc(C5CC(=O)N5)cc4)cccc3c2F)CS1(=O)=O` (stereo partly drawn) [Example 81]: 1720 nM and 184 nM.
The matching figures for `CN1C(=N)N[C@](C)(c2cc(-c3cc(F)cc(-c4nnco4)c3)ccc2F)CS1(=O)=O` [Example 30]: 235 nM and 869 nM.
`CN1C(=N)N[C@](C)(c2sc(-c3ccnc(-c4nc(C5CC5)no4)c3)cc2Cl)CS1(=O)=O` [Example 51]: the figures for the Ki (at human autoBACE-2; in test [1]) were 2.5 nM and 127 nM, respectively.
The matching figures for `Cc1cnn(-c2cc(-c3cc(F)c([C@]4(C)CS(=O)(=O)N(C)C(=N)N4)s3)ccn2)c1` [Example 75]: 2530 nM and 2780 nM.
The matching figures for `CN1C(=N)N[C@](C)(c2sc(-c3ccc(F)c(-c4nnco4)c3)cc2Cl)CS1(=O)=O` [Example 33]: 10 nM and 5.5 nM.
The matching figures for `CN1C(=N)N[C@](C)(c2sc(-c3ccc(-c4cccnc4)cc3)cc2Cl)CS1(=O)=O` [Example 64]: 1040 nM and 2100 nM.
On to `CN1C(=N)N[C@](C)(c2sc(-c3cccc(-c4nnco4)c3)cc2F)CS1(=O)=O` [Example 2], for which the Ki on human autoBACE-2 was 13.8 nM; in test [1], 1.7 nM.
The matching figures for `Cc1cocc1-c1ccc(-c2nccc3c(Cl)c([C@]4(C)CS(=O)(=O)N(C)C(=N)N4)sc23)c(F)c1` [Example 110]: 444 nM and 112 nM.
The matching figures for `CN1C(=N)N[C@](C)(c2sc(-c3ccnc(-n4ccnc4)c3)cc2F)CS1(=O)=O` [Example 76]: 52 nM and 112 nM.
For `CN1C(=N)N[C@](C)(c2sc3c(-c4ccc(C5CC(=O)N5)cc4)nccc3c2Cl)CS1(=O)=O` (stereo partly drawn) [Example 101], the Ki at human autoBACE-2 was 116 nM; in test [1], 959 nM.
On to `CN1C(=N)N[C@](C)(c2sc3c(-c4ccc(-c5cn[nH]c5)cc4F)nccc3c2Cl)CS1(=O)=O` [Example 114], for which the values for the Ki (on human autoBACE-2; in test [1]) were 134 nM and 330 nM, respectively.
The matching figures for `CN1C(=N)N[C@](C)(c2sc(-c3cccc(-c4nnco4)c3F)cc2Cl)CS1(=O)=O` [Example 35]: 30 nM and 60.7 nM.
The matching figures for `CN1C(=N)N[C@](C)(c2cc(-c3cc(F)cc(-c4cnco4)c3)cs2)CS1(=O)=O` [Example 24]: 18 nM and 81 nM.
The matching figures for `CN1C(=N)N[C@](C)(c2sc(-c3cccc(-c4nc(C5CC5)no4)c3)cc2Cl)CS1(=O)=O` [Example 39]: 9.9 nM and 419 nM.
Take `CN1C(=N)N[C@](C)(c2sc(-c3cc(F)cc(-c4nnco4)c3)cc2F)CS1(=O)=O` [Example 29]: the Ki at human autoBACE-2 is 1.3 nM; in test [1], 1.2 nM.
Consider `CN1C(=N)N[C@](C)(c2sc(-c3ccnc(-c4nc(C5CC5)no4)c3)cc2F)CS1(=O)=O` [Example 52], for which the Ki is 17 nM at human autoBACE-2 and 498 nM in test [1].
The matching figures for `CN1C(=N)N[C@](C)(c2sc(-c3cccc(-c4ncno4)c3)cc2F)CS1(=O)=O` [Example 48]: 0.63 nM and 0.87 nM.
The matching figures for `CCc1cnn(-c2ccc(-c3nccc4c(Cl)c([C@]5(C)CS(=O)(=O)N(C)C(=N)N5)sc34)c(F)c2)c1` [Example 118]: 702 nM and 229 nM.
The matching figures for `CN1C(=N)N[C@](C)(c2sc3c(-c4ccc(C5CC5)nc4)nccc3c2Cl)CS1(=O)=O` [Example 79]: 22 nM and 282 nM.
Turning to `CN1C(=N)N[C@](C)(c2sc(-c3cccc(-c4nnco4)c3)cc2Cl)CS1(=O)=O` [Example 1], the Ki at human autoBACE-2 is 6 nM; in test [1], 1.6 nM.
The matching figures for `CN1C(=N)N[C@](C)(c2sc(-c3ccnc(-c4cnco4)c3)cc2F)CS1(=O)=O` [Example 56]: 20 nM and 23.5 nM.
The matching figures for `CN1C(=N)N[C@](C)(c2sc(-c3cncc(-c4nnc(C5CC5)o4)c3)cc2Cl)CS1(=O)=O` [Example 57]: 44 nM and 566 nM.
The matching figures for `CN1C(=N)N[C@](C)(c2sc(-c3cccc(-c4nnco4)c3F)cc2F)CS1(=O)=O` [Example 36]: 247 nM and 1150 nM.
For the compound `CN1C(=N)N[C@](C)(c2sc(-c3ccc(F)c(-c4nnco4)c3)cc2F)CS1(=O)=O` [Example 34], the Ki on human autoBACE-2 was 11 nM; in test [1] it was 6.7 nM.
The matching figures for `CN1C(=N)N[C@](C)(c2sc(-c3ccnc(-c4ccccc4)c3)cc2F)CS1(=O)=O` [Example 54]: 12 nM and 132 nM.
As for `Cc1cn(-c2cc(-c3cc(F)c([C@]4(C)CS(=O)(=O)N(C)C(=N)N4)s3)ccn2)cn1` [Example 72], the Ki at human autoBACE-2 is 26 nM; in test [1], 67.2 nM.
The matching figures for `CN1C(=N)N[C@](C)(c2sc(-c3cccc(-c4noc(C5CC5)n4)c3)cc2F)CS1(=O)=O` [Example 45]: 3 nM and 323 nM.
The matching figures for `CN1C(=N)N[C@](C)(c2sc(-c3cc(-c4nnco4)ccc3F)cc2F)CS1(=O)=O` [Example 32]: 3.9 nM and 1.1 nM.
The matching figures for `CN1C(=N)N[C@](C)(c2sc(-c3cncc(-c4ncco4)c3)cc2F)CS1(=O)=O` [Example 10]: 1 nM and 15.7 nM.
`CN1C(=N)N[C@](C)(c2sc3c(-c4ccc(-n5cccn5)cc4F)nccc3c2Cl)CS1(=O)=O` [Example 116]: the Ki was 110 nM on human autoBACE-2 and 31.4 nM in test [1].
The matching figures for `Cc1noc(-c2cc(-c3cc(Cl)c([C@]4(C)CS(=O)(=O)N(C)C(=N)N4)s3)ccn2)n1` [Example 49]: 1.1 nM and 18.7 nM.
The matching figures for `CN1C(=N)N[C@](C)(c2sc3c(-c4ccc(-n5nccn5)cc4)cccc3c2F)CS1(=O)=O` [Example 92]: 1660 nM and 1660 nM.
Take `CN1C(=N)N[C@](C)(c2sc3c(-c4ccc(-c5ccnn5C)cc4F)nccc3c2Cl)CS1(=O)=O` [Example 111]: the values for the Ki (at human autoBACE-2; in test [1]) were 27 nM and 197 nM, respectively.
The matching figures for `CN1C(=N)N[C@](C)(c2cc(-c3cc(F)cc(-c4nnco4)c3)cs2)CS1(=O)=O` [Example 43]: 6.5 nM and 8.8 nM.
The matching figures for `CN1C(=N)N[C@](C)(c2cc(-c3cncc(-c4cnco4)c3)cs2)CS1(=O)=O` [Example 22]: 98 nM and 85.9 nM.
